Measurements as given in the NIST ThermoML archive (doi:10.1016/j.jct.2017.06.001).

Test: xn = mol fraction of the nth substance listed
Settings: 303.15 K, 100 kPa, Liquid, Frequency=5 MHz, Pulse-echo method

OCCCCCO [1,5-pentanediol] + O
Settings	speed of sound [m/s]
x1 = 0.1172	1668.9
x1 = 0.1188	1669.4
x1 = 0.1225	1670.4
x1 = 0.1232	1670.5
x1 = 0.127	1671.5
x1 = 0.1286	1671.8
x1 = 0.1312	1672.4
x1 = 0.1344	1673
x1 = 0.135	1673.1
x1 = 0.1389	1673.8
x1 = 0.1394	1673.8
x1 = 0.1443	1674.5
x1 = 0.1445	1674.6
x1 = 0.1496	1675.2
x1 = 0.1507	1675.3
x1 = 0.1548	1675.7
x1 = 0.1571	1675.9
x1 = 0.1598	1676.1
x1 = 0.163	1676.3
x1 = 0.1658	1676.5
x1 = 0.1708	1676.7
x1 = 0.1802	1676.9
x1 = 0.1897	1677
x1 = 0.1979	1676.8
x1 = 0.2069	1676.6
x1 = 0.2148	1676.3
x1 = 0.2235	1675.9
x1 = 0.2319	1675.5
x1 = 0.2409	1674.9
x1 = 0.2504	1674.3
x1 = 0.2626	1673.4
x1 = 0.2732	1672.6
x1 = 0.2834	1671.8
x1 = 0.2953	1670.8
x1 = 0.3083	1669.6
x1 = 0.3214	1668.4
x1 = 0.3389	1666.8
x1 = 0.3516	1665.5
x1 = 0.3648	1664.2
x1 = 0.3773	1662.8
x1 = 0.3937	1661.1
x1 = 0.4071	1659.6
x1 = 0.4199	1658.1
x1 = 0.4346	1656.3
x1 = 0.447	1654.8
x1 = 0.4637	1652.8
x1 = 0.4812	1650.5
x1 = 0.4955	1648.6
x1 = 0.5124	1646.4
x1 = 0.5315	1643.8
x1 = 0.5497	1641.2
x1 = 0.5687	1638.5
x1 = 0.5883	1635.7
x1 = 0.6098	1632.7
x1 = 0.63	1629.8
x1 = 0.6445	1627.7
x1 = 0.6622	1625.2
x1 = 0.6847	1622
x1 = 0.7039	1619.3
x1 = 0.7252	1616.4
x1 = 0.7448	1613.7
x1 = 0.7674	1610.7
x1 = 0.7881	1608.1
x1 = 0.8098	1605.3
x1 = 0.8318	1602.6
x1 = 0.8478	1600.6
x1 = 0.8678	1598.2
x1 = 0.8839	1596.3
x1 = 0.9005	1594.4
x1 = 0.9185	1592.2
x1 = 0.9359	1590.2
x1 = 0.9494	1588.6
x1 = 0.9623	1587.1
x1 = 0.9723	1585.9
x1 = 0.9822	1584.7
x1 = 0.9892	1583.9
x1 = 0.9947	1583.2
x1 = 0.9972	1582.9
x1 = 1	1582.5
